{"source": "patent US20140283155A1", "about": "“REPRESSIBLE LETHAL SYSTEM FOR REGULATING INSECT POPULATIONS” (California Institute of Technology, priority 2013, published 2014)", "tested_on": "Drosophila melanogater", "test": "Evaluation of VanDal system in biological control (in vivo functionality, survival of transgenic lines and progeny)", "settings": "diet supplemented with a low dose vanillic acid", "description": "To engineer a dominant vanillic acid-repressible lethal system (VanDal system), a plasmid was constructed, in which the C-terminus of VanR was fused with the Herpes simplex virus transactivation domain VP16, generating a chimeric transcription factor (vanRTF) (as descried in Hagmann et al., 1997). The chimeric transcription factor VanR^TF was driven at high levels, in a ubiquitous pattern, using a baculovirus immediate early (iel) promoter separated by a baculovirus enhancer (hr5) (as described in Bossin et al., 2007). On the same plasmid, but facing in the opposite direction, VanO operator sequences were placed upstream of the P_hsp70^min promoter (as described in Amin et al., 1987), and the P_hsp70^min promoter drove the expression of toxin VP16. The vanillic acid-repressible lethal system resides in a single piggyback transposable element that also includes a positive selection marker gene, (Opie2-dsRed), to facilitate the identification of transgenic insects.\nIn this example, in vivo functionality of the VanDal system prepared according to the general procedure of Example 1 was evaluated in Drosophila melanogater, an insect model organism. […] To simulate a release into the wild, two crosses in the absence of vanillic acid were set up: 1) homozygous VanDal males mated separately to wildtype virgin females and 2) homozygous Vandal females mated separately to wildype males."}
{"smiles": "COc1cc(C(=O)O)ccc1O", "note": "[vanillic acid, 4-hydroxy-3-methoxybenzoic acid]", "values": [{"measurement": "survival of transgenic VanDal lines", "result": "only survive when fed a diet supplemented with a low dose vanillic acid"}]}
